Results: patent publication US20210060119A1, “OXYTOCIN COMPOSITIONS FOR TREATMENT OF TINNITUS” (New York University, priority 2019, published 2021)

Experiment: clinical use of intranasal oxytocin formulations to treat tinnitus (patient reports, Tinnitus Handicap Inventory)
Format: in vivo, human
Excerpt: In an aspect, this disclosure provides a method for treating tinnitus. The method comprises administering intranasally to an individual a composition comprising or consisting essentially of oxytocin, wherein such administration results in treatment of tinnitus. The effectiveness of treatment of tinnitus may be monitored by quantifying tinnitus, such as by self-evaluation using clinically accepted techniques. An example is the Tinnitus Handicap Inventory (“THI”), a validated and published measurement technique. (Newman et al., Arch Otolaryngol Head Neck Surg, 1996, February 122(2), 143-8). In an embodiment, the improvement in an individual using THI may comprise an improvement of at least 10%. In various embodiments, the improvement may comprise from 10-100%, such as at least 20, 30, 40, 50, 60, 70, 80, 90, 95, or 99%.
This example describes clinical use of the present formulations to treat tinnitus. […] The formulation contained oxytocin, magnesium chloride, citric acid, and sodium citrate in sterile water. […] The dose was then increased to 45 IU (3 sprays of 15 IU) 4 times daily. […] A thickener was then added to the formulation keeping the oxytocin amount the same. […] Their score on the Tinnitus Handicap Inventory reduced from a pretreatment score of 96 (meaning a catastrophic level) to a current score of 14 (meaning mild or no tinnitus). The patient has remained improved over 1 year since initiating therapy. Their current dose is 22.5 IU in each nostril 4 times daily. Since their tinnitus occurs in distinct cycles, at times when tinnitus severity is loudest, they increase the dose to 5 times daily for 2 days. […] Their current handicap inventory is 8.
The dose was increased to 45 IU 4 times daily resulting in a decrease in tinnitus volume by approximately 30%.
In another patient, who developed constant tinnitus after a neck injury one year ago, a dose of 45 IU (22.5 IU in each nostril) 4 times daily was used for 30 days and is still ongoing. It has provided about 15% improvement.
In another patient with constant tinnitus a dose of 30 IU 4 times daily has been started and treatment is ongoing.

[1] = fifth patient, constant tinnitus, 30 IU 4 times daily, after 2 weeks
[2] = first patient, 22.5 IU in each nostril 4 times daily, 5 times daily for 2 days when loudest, past 3 months

In the case of `CC[C@H](C)[C@@H]1NC(=O)[C@H](Cc2ccc(O)cc2)NC(=O)[C@@H](N)CSSC[C@@H](C(=O)N2CCC[C@H]2C(=O)N[C@@H](CC(C)C)C(=O)NCC(N)=O)NC(=O)[C@H](CC(N)=O)NC(=O)[C@H](CCC(N)=O)NC1=O` [oxytocin, Cys-Tyr-Ile-Gln-Asn-Cys-Pro-Leu-Gly (SEQ ID NO:1)], the “time without noticing the tinnitus” value [1] is reported as “several hours per day without noticing the tinnitus”, the tinnitus intensity [1] is reported as “tinnitus intensity has lowered” and the “time patient has remained improved since initiating therapy” value (first patient) is reported as “over 1 year”. The “longest time without tinnitus” value [2] was no more than 10 days, the tinnitus severity [2] was “reduced tinnitus severity” and the “current handicap inventory (Tinnitus Handicap Inventory)” value (first patient, 22.5 IU in each nostril 4 times daily, 5 times daily for 2 days when loudest, pretreatment 96) was 8. For the same molecule, the “score on the Tinnitus Handicap Inventory” value (first patient, formulation with thickener, pretreatment score 96 (catastrophic level), 14 means mild or no tinnitus) was 14, the tinnitus free period (first patient, thickener added, same oxytocin amount (45 IU 4 times daily)) was “several days of tinnitus free period” and the improvement (fourth patient, constant tinnitus after neck injury, 45 IU (22.5 IU in each nostril) 4 times daily for 30 days) was “about 15%”. For the same molecule, the tinnitus volume (fourth patient, dose raised on occasions to 5 times daily) was “diminished tinnitus volume”, the relief of tinnitus (general statement, lower amounts of oxytocin (under 20 IU per day)) was “did not result in any significant relief” and the “time patient remains improved” value (second patient, 45 IU twice daily) was “more than a year”. The benefit (third patient, tinnitus caused by a drug, 30 IU twice daily) was “without benefit” and the “decrease in tinnitus volume” value (third patient, tinnitus caused by a drug, 45 IU 4 times daily) was “approximately 30%”.
